Test results as given in PubChem BioAssay AID1963875 (Molecular Pharmacology Branch, DTP, NCI, 2024).

Test system: KRAS-mutant PDC complex spheroid viability
Assay: Anticancer human tumor 186277-243-T-J2-PDC patient-derived colon adenocarcinoma cell line growth inhibition [KRAS2]
Settings: for IC50: curve of first compound; for viability, T/C: stronger effect = lower value
Outline: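 KRAS-mutant tumor cells were grown as spheroids with HUVEC endothelial cells and human MSCs as stroma. Targeted agents were tested alone and with KRAS pathway inhibitors. Doses started at or near clinical Cmax, or 10 microM, descending half-log.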

[1] = second compound 0.0316 µM, first compound 0.0316 µM
[2] = second compound 0.0316 µM, first compound 0.1 µM
[3] = second compound 0.0316 µM, first compound 0.316 µM
[4] = second compound 0.0316 µM, first compound 1 µM
[5] = second compound 0.0316 µM, first compound 3.16 µM
[6] = second compound 0.0316 µM, first compound 10 µM
[7] = second compound 0.1 µM, first compound 0.0316 µM
[8] = second compound 0.1 µM, first compound 0.1 µM
[9] = second compound 0.1 µM, first compound 0.316 µM
[10] = second compound 0.1 µM, first compound 1 µM
[11] = second compound 0.1 µM, first compound 3.16 µM
[12] = second compound 0.1 µM, first compound 10 µM
[13] = second compound 0.316 µM, first compound 0.0316 µM
[14] = second compound 0.316 µM, first compound 0.1 µM
[15] = second compound 0.316 µM, first compound 0.316 µM
[16] = second compound 0.316 µM, first compound 1 µM
[17] = second compound 0.316 µM, first compound 3.16 µM
[18] = second compound 0.316 µM, first compound 10 µM
[19] = second compound 1 µM, first compound 0.0316 µM
[20] = second compound 1 µM, first compound 0.1 µM
[21] = second compound 1 µM, first compound 0.316 µM
[22] = second compound 1 µM, first compound 1 µM
[23] = second compound 1 µM, first compound 3.16 µM
[24] = second compound 1 µM, first compound 10 µM
[25] = second compound 3.16 µM, first compound 0.0316 µM
[26] = second compound 3.16 µM, first compound 0.1 µM
[27] = second compound 3.16 µM, first compound 0.316 µM
[28] = second compound 3.16 µM, first compound 1 µM
[29] = second compound 3.16 µM, first compound 3.16 µM
[30] = second compound 3.16 µM, first compound 10 µM
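Wherever viability, T/C is given: viability read after seven days of compound exposure; 100% = DMSO vehicle-treated spheroids so lower means less viable.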

Compound | IC50 (second compound 0.0316 µM) [nM] | IC50 (second compound 0.1 µM) [nM] | IC50 (second compound 0.316 µM) [nM] | IC50 (second compound 1 µM) [nM] | IC50 (second compound 3.16 µM) [nM] | viability, T/C [1] [%] | viability, T/C [2] [%] | viability, T/C [3] [%] | viability, T/C [4] [%] | viability, T/C [5] [%] | viability, T/C [6] [%] | viability, T/C [7] [%] | viability, T/C [8] [%] | viability, T/C [9] [%] | viability, T/C [13] [%] | viability, T/C [14] [%] | viability, T/C [19] [%] | viability, T/C [20] [%] | viability, T/C [25] [%] | viability, T/C [26] [%] | other results
COc1cc(Nc2ncc3c(n2)-c2ccc(Cl)cc2C(c2c(F)cccc2OC)=NC3)ccc1C(=O)O + C=CC(=O)N1CCN(c2nc(OCC3CCCN3C)nc3c2CCN(c2cccc4cccc(C)c24)C3)CC1CC#N | < 31.6 | < 31.6 | < 31.6 | < 31.6 | < 31.6 | 34 | 32.2 | 30 | 34.5 | 43.3 | 48 | 34.2 | 31.7 | 30.3 | 34.3 | 28.6 | 28 | 26.4 | 0.25 | 0.19 | viability, T/C [10]: 31.2%; viability, T/C [11]: 42.8%; viability, T/C [12]: 44.2%; viability, T/C [15]: 27.4%; viability, T/C [16]: 30.2%; viability, T/C [17]: 40.2%; viability, T/C [18]: 42.5%; viability, T/C [21]: 25.9%; viability, T/C [22]: 25.3%; viability, T/C [23]: 29.5%; viability, T/C [24]: 21.6%; viability, T/C [27]: 0.19%; viability, T/C [28]: 0.17%; viability, T/C [29]: 0.69%; viability, T/C [30]: 0.19%
COc1cc2nccc(Oc3ccc(NC(=O)C4(C(=O)Nc5ccc(F)cc5)CC4)cc3)c2cc1OC + C=CC(=O)N1CCN(c2nc(OCC3CCCN3C)nc3c2CCN(c2cccc4cccc(C)c24)C3)CC1CC#N | 1880 | 1890 | 1720 | 1060 | < 31.6 | 108 | 107 | 114 | 95.5 | 12.5 | 12.3 | 113 | 122 | 110 | 109 | 108 | 107 | 109 | 0.41 | 0.44 | viability, T/C [10]: 97.8%; viability, T/C [11]: 11.4%; viability, T/C [12]: 10.8%; viability, T/C [15]: 116%; viability, T/C [16]: 85.3%; viability, T/C [17]: 10.5%; viability, T/C [18]: 11.3%; viability, T/C [21]: 112%; viability, T/C [22]: 52.5%; viability, T/C [23]: 3.98%; viability, T/C [24]: 0.37%; viability, T/C [27]: 0.24%; viability, T/C [28]: 0.21%; viability, T/C [29]: 0.13%; viability, T/C [30]: 0.2%
Cn1ncnc1[C@H]1c2n[nH]c(=O)c3cc(F)cc(c23)N[C@@H]1c1ccc(F)cc1 + C=CC(=O)N1CCN(c2nc(OCC3CCCN3C)nc3c2CCN(c2cccc4cccc(C)c24)C3)CC1CC#N | > 100 | > 100 | > 100 | > 100 | < 0.316 | 99.2 | 79.8 |  |  |  |  | 98.3 | 80.5 |  | 90.1 | 79.4 | 70.8 | 63.4 | 0.21 | 0.27 | viability, T/C (second compound 0.0316 µM, first compound 0.000316 µM): 94.5%; viability, T/C (second compound 0.0316 µM, first compound 0.001 µM): 109%; viability, T/C (second compound 0.0316 µM, first compound 0.00316 µM): 100%; viability, T/C (second compound 0.0316 µM, first compound 0.01 µM): 93.8%; viability, T/C (second compound 0.1 µM, first compound 0.000316 µM): 114%; viability, T/C (second compound 0.1 µM, first compound 0.001 µM): 98.5%; viability, T/C (second compound 0.1 µM, first compound 0.00316 µM): 110%; viability, T/C (second compound 0.1 µM, first compound 0.01 µM): 94.9%; viability, T/C (second compound 0.316 µM, first compound 0.000316 µM): 92%; viability, T/C (second compound 0.316 µM, first compound 0.001 µM): 109%; viability, T/C (second compound 0.316 µM, first compound 0.00316 µM): 106%; viability, T/C (second compound 0.316 µM, first compound 0.01 µM): 108%; viability, T/C (second compound 1 µM, first compound 0.000316 µM): 103%; viability, T/C (second compound 1 µM, first compound 0.001 µM): 95.4%; viability, T/C (second compound 1 µM, first compound 0.00316 µM): 105%; viability, T/C (second compound 1 µM, first compound 0.01 µM): 84.8%; viability, T/C (second compound 3.16 µM, first compound 0.000316 µM): 0.19%; viability, T/C (second compound 3.16 µM, first compound 0.001 µM): 0.19%; viability, T/C (second compound 3.16 µM, first compound 0.00316 µM): 0.16%; viability, T/C (second compound 3.16 µM, first compound 0.01 µM): 0.18%
